How the values were obtained:
[1] = system: patients treated with paclitaxel; conditions: paclitaxel dose 135 mg/m^2; cited from earlier work
[2] = system: paclitaxel-induced cold allodynia; assay: Acetone test, paclitaxel-induced cold allodynia in mice; type: in vivo, CD-1 mice
Description: (§1) Experiments were performed in CD-1 mice (Charles River, U.S.A.) with at least n=10/experimental group. […] Control animals received the same volume of solvent (a mixture of ethanol and cremophor EL)
(§2) Mechanical allodynia was evaluated with an electronically driven Von Frey filament (Dynamic Plantar. Aesthesiorneter, Ugo Basile, Varese, Italy) as previously described (Nieto et al., Pain, 2008, 137(3), 520-31), and cold allodynia was evaluated using the acetone drop method (Nieto et al., Pain, 2008, 137(3), 520-31). […] In addition, in order to study the influence of the sigma 1 receptor in this process the difference in development of allodynia was determined using wild-type mice and sigma 1-receptor knock-out-mice.
Therefore, the cumulative dose was 10 mg/kg per mouse. […]
The response of the animals to the different nociceptive stimuli was tested subsequently during 2-4 weeks, depending on the test (see below), without any additional treatment. Each animal was tested only in one nociceptive model. […] Each animal received only one dose of compound 63 and was tested in only one nociceptive model.
Procedure for assessment of cold allodynis. Cold allodynia was tested as previously described by Nieto et al., Pain, 2008, 137(3), 520-31, by gently touching the plantar skin of the hind paws with an acetone bubble formed with a syringe connected to a thin polyethylene tube. The mice were housed and habituated for 30 min in transparent plastic boxes (7×7×13 cm) with a floor made of wire mesh. After the adaptation period, acetone was applied alternately three times to each paw at intervals of 30 s, and the duration of licking or biting were recorded. A small mirror was placed behind the chambers to allow clear observation of the paws. The time spent licking or biting the paw was recorded by a stopwatch and represented as the cumulative time of licking/biting in the six measurements. Since licking persisting more than 10 s in the experiments was very unusual, a cut-off time of 10 s was used for each trial.
Therefore, the day 10, after the habituation period to the apparatus, baseline latencies were recorded, 30 min later compound 63 or saline was injected s.c. and paw withdrawal latencies were assessed again 60, 120 and 180 minutes after the injection.
(§3) On that day, duration of hind paw licking/biting was recorded immediately before (time 0) and at several times (60, 120 and 180 min) after the injection of compound 63 or saline.
as §3

[3] = system: paclitaxel-induced mechanical allodynia; assay: Electronic Von Frey (Dynamic Plantar Aesthesiometer), paclitaxel-induced mechanical allodynia in mice; type: in vivo, CD-1 mice
Description: as §1, §2
Therefore, the cumulative dose was 10 mg/kg per mouse. In the control group the vehicle of paclitaxel was administered following the same schedule.
Compound 63 was dissolved in normal saline just before administration and applied at doses of 8, 16, 32 or 64 mg/kg subcutaneously.
The effects of Compound 63 on paclitaxel-induced neuropathic pain were examined in two different ways. […] The response of the animals to the different nociceptive stimuli was tested subsequently during 2-4 weeks, depending on the test (see below), without any additional treatment. Each animal was tested only in one nociceptive model. To test the effect of compound 63 on the expression of paclitaxel-induced pain, a single compound 63 injection was performed on day 10, a day of maximum expression of mechanical allodynia or cold aliodynia (see figures for details). Each animal received only one dose of compound 63 and was tested in only one nociceptive model.
Procedure for assessment of mechanical allodynia. To assess mechanical allodynia, paw withdrawal thresholds were measured using a Dynamic Plantar Aesthesiometer (Ugo Basile, Italy). The electronic Von Frey device employs a single nonflexible filament which applies a progressively increasing force (from 0 to 10 g) against the plantar surface of the hind paw over a 20 a period. […] The day of the experiment, mice were placed individually in test compartments (9×9×14 cm) with a wire mesh bottom and allowed to acclimatize to them for 2 h. After habituation, each mouse was tested three times alternately in each hind paw.
On that day, paw withdrawal latency was recorded immediately before (time 0) and at several times (30, 60, 90, 120 and 180 min) after the injection of compound 63 or saline.

[4] = system: Oxaliplatin-induced cold allodynia; assay: Acetone test, chronic model of oxaliplatin-induced neuropathy in rats; type: in vivo, Sprague-Dawley rats; conditions: for decrease in the reaction time of paw withdrawal as compared to the HPMC/distilled water-treated group: oxaliplatin 3 mg/kg i.p. 3 times a week + 0.5% HPMC; for reaction time of paw withdrawal (acetone test), curative treatment: throughout the study
Description: Sixty male Sprague-Dawley rats (CERJ, France), weighing 136-169 g at the beginning of the experimental phase (first administration of compounds on D-2), were used. Rats were housed in a temperature (19.5° C.-24.5° C.) and relative humidity (45%-65%) controlled room with a 12 h—light/dark cycle, with ad libitum access to standard pelleted laboratory chow and water throughout the study.
All treatments were administered in a coded order when it is possible.
Animals were tested 2 times during treatment with compound 63 (i.e. D8 and D15) and once 24 h after completion of treatment with compound 63 (i.e. D16).
During the testing days (i.e. D8, D15), compound 63 and 0.5% HPMC were administered 30 min before the test.
Cold allodynia was assessed by measuring the responses to thermal non-nocic ptive stimulation (acetone test) on D8, D15 and D16.
Cold allodynia was assessed using the acetone test. In this test, latency of hindpaw withdrawal was measured after application of a drop of acetone to the plantar surface of both hindpaws (reaction time) and the intensity of tne response was scored (cold score).
Reaction time to the cooling effect of acetone was measured within 20 sec (cut-off) after acetone application. Responses to acetone were also graded to the following 4-point scale: 0 (no response); 1 (quick withdrawal, flick of the paw); 2 (prolonged withdrawal or marked flicking of the paw); 3 (repeated flicking of the paw with licking or biting).
For each experimental group, the results were expressed as: • The reaction time defined as the time expressed in sec required to elicit paw reaction (mean of 6 measures for each rat together±SEM). • The cumulative cold score defined as the sum of the 6 scores for each rat together±SEM. The minimum score being 0 (no response to any of the 6 trials) and the maximum possible score being 18 (repeated flicking and licking or biting of paws on each of the six trials).
Statistical significance between the treated groups and the vehicle-treated group was determined by a Two-way Repeated Measures ANOVA on Ranks followed, when the F value is significant, by an appropriate post-hoc comparison (Bonferroni's test sing SigmaStet software. The significance level was p<0.05. Statistical analyses were done using SigmaStet software.

[5] = system: Cisplatin-induced mechanical allodynia; type: in vivo, Wistar rats; conditions: rats
Description: Male Wistar rats (250-300 g) were obtained from Harlan-lberica (Barcelona, Spain). Upon arrival to our laboratory, animals were stored in standard transparent cages (40×28×25 cm) in environmentally controlled conditions (temperature=20° C,; humidity=60%) with a 12 h light/12 h dark cycle (lights on between 08:00 and 20:00 h). Animals were allowed free access to tap water and standard laboratory rat chow (Harlan-lberica, Barcelona, Spain).
Prior to the experiment, rats were habituated to isolation. Rats received intraperitoneal injections one day per week for 5 weeks of cisplatin (1 mg/kg)+vehicle (control group for acute treatment) or cisplatin (1 mg/kg)+compound 63 (25 mg/kg). The last week (day 36) control group received an acute administration of 64 mg/kg of compound 63.
Mechanical allodynia was assessed before cisplatin administration (basal) and at the end of each experimental week (w1, w2, w3, w4). For the acute evaluation of compound 63 (w5), the mechanical allodynia was assessed 50 minutes after drug administration. On those days, rats were placed individually on an elevated iron mesh in a clear plastic cage and were allowed to adapt to the testing environment for at least 10 min. Habituation to this environment was also performed on the two days before assessment. […] Only robust and immediate withdrawal responses from the stimulus were recorded. […]

[6] = paclitaxel 2 mg/kg i.p. once daily during 5 days, mice
[7] = paclitaxel 2 mg/kg i.p. during 5 days
[8] = 0.5% HPMC/Oxaliplatin-treated group, D8
[9] = 0.5% HPMC/Oxaliplatin-treated group, D15
[10] = 0.5% HPMC/Oxaliplatin-treated group, D16

## CC(=O)O[C@H]1C(=O)[C@@]2(C)[C@H]([C@H](OC(=O)c3ccccc3)[C@]3(O)C[C@H](OC(=O)[C@H](O)[C@@H](NC(=O)c4ccccc4)c4ccccc4)C(C)=C1C3(C)C)[C@]1(OC(C)=O)CO[C@@H]1C[C@@H]2O [Paclitaxel]
[1]
  patients progressing to dose-limiting neurotoxicity: 0%
[2]; [6]
  animals with significantly increased time licking/biting the stimulated paw (paclitaxel-responder animals): 67%
  paclitaxel-treated animals that did not show cold allodynia: 33%
[3]; [7]
  animals showing a reduction of the mechanical threshold: 96%
  non-responder animals (mechanical threshold on day 10 not lower than pretreatment): about 4%
[3]; paclitaxel 2 mg/kg i.p. during 5 days, day 10
  induction of mechanical allodynia (threshold force for paw withdrawal, Von Frey test): induced mechanical allodynia

## O=C1[O][Pt]2([NH][C@@H]3CCCC[C@H]3[NH]2)[O]C1=O [Oxaliplatin, reference compound]
[4]; [8]
  cumulative cold score (acetone test): 5.0±0.8
  reaction time of paw withdrawal (acetone test): 14.7 ± 0.9 s
[4]; [9]
  cumulative cold score (acetone test): 7.0±1.2
  reaction time of paw withdrawal (acetone test): 11.5 ± 1.6 s
[4]; [10]
  cumulative cold score (acetone test): 6.7±0.9
  reaction time of paw withdrawal (acetone test): 11.5 ± 0.9 s
[4]; D8
  decrease in the reaction time of paw withdrawal as compared to the HPMC/distilled water-treated group: −19%
[4]; D15
  decrease in the reaction time of paw withdrawal as compared to the HPMC/distilled water-treated group: −37%
[4]; D16
  decrease in the reaction time of paw withdrawal as compared to the HPMC/distilled water-treated group: −36%

## Cc1cc(OCCN2CCOCC2)nn1-c1ccc2ccccc2c1 [Compound 63, 4-{2-[5-Methyl-1-(naphthalen-2-yl)-1H-pyrazol-3-yloxy]ethyl}morpholine]
[4]; 20 mg/kg i.p. daily D8-D15
  reaction time of paw withdrawal (acetone test), curative treatment: low effect
[4]; 40 mg/kg i.p. daily D8-D15
  cumulative cold score (acetone test), curative treatment: intermediate effect
  reaction time of paw withdrawal (acetone test), curative treatment: intermediate effect
[4]; 40 mg/kg i.p. twice a day from D-2 to D15, oxaliplatin 3 mg/kg i.p., rats
  reaction time of paw withdrawal (acetone test), preventive treatment: induced a beneficial effect
[4]; curative, 20 mg/kg i.p., D8
  cumulative cold score (acetone test): 4.3±0.6
[4]; curative, 80 mg/kg i.p. daily D8-D15, D15
  cumulative cold score (acetone test): 1.8±0.3
[4]; curative, 80 mg/kg i.p. daily D8-D15, D15, oxaliplatin 3 mg/kg i.p., rats
  reaction time of paw withdrawal (acetone test): 17.5 ± 0.5 s
[4]; curative, 80 mg/kg i.p. daily D8-D15, D16 (24 h after last dose), oxaliplatin 3 mg/kg i.p., rats
  reaction time of paw withdrawal (acetone test): 15.5 ± 1.0 s
[4]; curative, 80 mg/kg i.p. daily D8-D15, D16, 24 hours after the last injection
  cumulative cold score (acetone test): 3.1±0.6
[4]; curative, 80 mg/kg i.p. daily from D8, D8, oxaliplatin 3 mg/kg i.p., rats
  reaction time of paw withdrawal (acetone test): 19.1 ± 0.3 s
[4]; curative, 80 mg/kg i.p., D8
  cumulative cold score (acetone test): 1.0±0.4
[4]; preventive, 40 mg/kg i.p. twice a day D-2 to D15, D8
  cumulative cold score (acetone test): 2.3±0.6
[4]; preventive, 40 mg/kg i.p. twice a day D-2 to D15, D15
  cumulative cold score (acetone test): 3.0±0.6
[4]; preventive, 40 mg/kg i.p. twice a day D-2 to D15, D16
  cumulative cold score (acetone test): 3.5±0.7
[5]; 64 mg/kg on week 5, 50 minutes before the test, cisplatin 1 mg/kg once a week for 5 weeks
  von Frey pressure response, acute treatment: reverted the effect induced by cisplatin to basal levels
[5]; coadministration of 25 mg/kg twice a day, one day per week, same days as cisplatin 1 mg/kg
  development of mechanical allodynia, preventive treatment: prevented the development of mechanical allodynia by cisplatin
[2]; 64 mg/kg s.c. 30 min before each paclitaxel-vehicle injection, days 1-5, vs paclitaxel-vehicle + saline
  response of the animals to acetone, co-administration with paclitaxel-vehicle: did not significantly modify the response of the animals to acetone
[2]; 64 mg/kg s.c. single injection on day 10, paclitaxel-vehicle treated mice
  response to acetone of control (paclitaxel-vehicle treated) animals: did not afex: the response to acetone
[2]; co-administration: 64 mg/kg s.c. 30 min before each paclitaxel 2 mg/kg i.p. injection, days 1-5, mice
  development of cold allodynia induced by paclitaxel (acetone test): inhibited the development of cold allodynia induced by paclitaxel
[2]; single s.c. injection 32-128 mg/kg on day 10 after paclitaxel 2 mg/kg i.p. days 1-5, mice, vs saline
  expression of paclitaxel-induced cold allodynia (duration of hind paw licking/biting, acetone test): inhibited the expression of paclitaxel-induced cold allodynia
[3]; 64 mg/kg s.c. single injection on day 10 after first paclitaxel-vehicle injection
  mechanical response of control (paclitaxel-vehicle treated) animals: did not affect the mechanical response
[3]; 64 mg/kg s.c. single injection on day 10 after paclitaxel 2 mg/kg i.p. days 1-5
  expression of mechanical allodynia induced by paclitaxel (threshold force for hind paw withdrawal): inhibited the expression of mechanical aliodynia induced by paclitaxel

From US20160199380A1, “Sigma Ligands For the Prevention or Treatment of Pain Induced by Chemotherapy” (Laboratorios del Dr. Esteve, S.A., priority 2009, published 2016)
